Source: ChEMBL document CHEMBL5584333, “Evo312: An Evodiamine Analog and Novel PKCβI Inhibitor with Potent Antitumor Activity in Gemcitabine-Resistant Pancreatic Cancer” (J Med Chem, 2024)
Activity calls are given as the source filed them. The calls are words filed in the database; no cut-off is given here.

Tests used:
[1] = test system: Gemcitabine-resistant PANC-1; assay: Cell cycle distribution in human Gemcitabine-resistant PANC-1 cells assessed as G0-G1 phase cells at 80 nM incubated for 24 hrs by RNase/PI staining based flow cytometric analysis (reference value: 45.21 %); type: functional
[2] = test system: Gemcitabine-resistant PANC-1; assay: Induction of apoptosis in human Gemcitabine-resistant PANC-1 cells assessed as upregulation of cleaved caspase-9 level at 160 nM incubated for 48 hrs by Western blot analysis; type: functional, cell-based
[3] = target: Proline-rich AKT1 substrate 1 (Homo sapiens) (UniProt Q96B36); assay: Inhibition of PRAS40 phosphorylation in human Gemcitabine-resistant PANC-1 cells at 160 nM incubated for 24 hrs by phospho-kinase array analysis; type: cell-based
[4] = test system: Gemcitabine-resistant PANC-1; assay: Antitumor activity against human Gemcitabine-resistant PANC-1 cells xenografted in male BALB/c nude mouse assessed as reduction in tumor weight at 10 mg/kg, ip administered three times in a week for 20 days relative to control; type: functional; set-up: scale not given: the % may be the effect or the level left; settings: time 20 day
[5] = test system: Gemcitabine-resistant PANC-1; assay: Cell cycle distribution in human Gemcitabine-resistant PANC-1 cells assessed as G0-G1 phase cells at 40 nM incubated for 24 hrs by RNase/PI staining based flow cytometric analysis (reference value: 45.21 %); type: functional
[6] = test system: Gemcitabine-resistant PANC-1; assay: Downregulation of PKCepsilon expression in human Gemcitabine-resistant PANC-1 cells at 40 to 160 nM incubated for 24 hrs by Western blotting; type: functional, cell-based; settings: dose 40-160 nM
[7] = test system: Gemcitabine-resistant PANC-1; assay: Induction of apoptosis in human Gemcitabine-resistant PANC-1 cells assessed as total cell death at 80 nM incubated for 48 hrs by Annexin V-FITC/PI staining based flow cytometric analysis relative to control; type: functional
[8] = target: T1, Protein kinase C beta type (Homo sapiens, UniProt P05771); assay: Inhibition of PKCbeta1 in human Gemcitabine-resistant PANC-1 cells incubated for 24 hrs; type: cell-based; settings: dose 40-200 nM
Target sequence in this assay (P05771 2-671 limits assumed): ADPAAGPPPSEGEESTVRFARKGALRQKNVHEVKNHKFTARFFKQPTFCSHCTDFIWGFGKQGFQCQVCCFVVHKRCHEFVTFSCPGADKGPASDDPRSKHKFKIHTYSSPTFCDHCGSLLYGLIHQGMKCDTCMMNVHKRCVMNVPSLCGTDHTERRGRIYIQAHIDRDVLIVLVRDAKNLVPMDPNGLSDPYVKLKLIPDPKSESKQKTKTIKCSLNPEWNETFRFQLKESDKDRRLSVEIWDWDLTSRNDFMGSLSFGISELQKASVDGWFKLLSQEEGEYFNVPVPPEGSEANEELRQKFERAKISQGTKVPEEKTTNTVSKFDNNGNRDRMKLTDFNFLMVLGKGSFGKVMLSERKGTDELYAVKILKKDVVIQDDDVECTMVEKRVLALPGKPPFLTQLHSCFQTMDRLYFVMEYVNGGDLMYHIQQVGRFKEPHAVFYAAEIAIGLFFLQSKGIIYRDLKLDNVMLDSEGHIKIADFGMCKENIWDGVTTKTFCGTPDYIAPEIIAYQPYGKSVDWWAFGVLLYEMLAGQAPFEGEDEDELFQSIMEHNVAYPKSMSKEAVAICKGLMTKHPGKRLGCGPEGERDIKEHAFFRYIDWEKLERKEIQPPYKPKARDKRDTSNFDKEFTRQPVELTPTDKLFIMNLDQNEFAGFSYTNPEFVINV

[9] = test system: Gemcitabine-resistant PANC-1; assay: Downregulation of PKCbeta1expression in human Gemcitabine-resistant PANC-1 cells at 100 nM incubated for 24 hrs by Western blot analysis; type: functional, cell-based
[10] = test system: Gemcitabine-resistant PANC-1; assay: Downregulation of PKCdelta expression in human Gemcitabine-resistant PANC-1 cells at 40 to 160 nM incubated for 24 hrs by Western blotting; type: functional, cell-based; settings: dose 40-160 nM
[11] = target: T1, Protein kinase C beta type; assay: Inhibition of recombinant full length N-terminal GST-tagged human PKCbeta1 expressed in baculovirus infected Sf9 insect cells using ERMRPRKRQGSVRRRV as substrate incubated for 60 mins in presence of ATP by ADP-glo reagent based luminometric analysis
Target sequence in this assay (P05771 whole entry): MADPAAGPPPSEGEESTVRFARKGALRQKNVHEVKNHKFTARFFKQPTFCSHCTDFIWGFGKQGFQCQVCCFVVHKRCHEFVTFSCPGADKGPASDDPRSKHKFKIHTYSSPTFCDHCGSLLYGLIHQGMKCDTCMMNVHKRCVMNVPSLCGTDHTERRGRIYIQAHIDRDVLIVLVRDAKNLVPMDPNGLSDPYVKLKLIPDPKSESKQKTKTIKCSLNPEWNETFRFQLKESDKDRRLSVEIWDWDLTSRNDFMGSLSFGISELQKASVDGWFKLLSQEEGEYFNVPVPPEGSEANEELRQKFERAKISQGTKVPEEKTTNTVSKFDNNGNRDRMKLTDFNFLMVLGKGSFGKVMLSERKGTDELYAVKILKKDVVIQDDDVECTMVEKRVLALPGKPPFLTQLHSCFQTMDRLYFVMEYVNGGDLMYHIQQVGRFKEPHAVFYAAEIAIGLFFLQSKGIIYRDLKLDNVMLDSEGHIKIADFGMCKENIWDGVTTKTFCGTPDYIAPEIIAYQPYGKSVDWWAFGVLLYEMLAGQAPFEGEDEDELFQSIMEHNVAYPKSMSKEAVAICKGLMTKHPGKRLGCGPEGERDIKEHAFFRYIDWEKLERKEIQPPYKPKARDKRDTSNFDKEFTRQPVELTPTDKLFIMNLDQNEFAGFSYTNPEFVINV

[12] = test system: Gemcitabine-resistant PANC-1; assay: Cell cycle distribution in human Gemcitabine-resistant PANC-1 cells assessed as G2/M phase cells at 80 nM incubated for 24 hrs by RNase/PI staining based flow cytometric analysis (reference value: 37.53 %); type: functional
[13] = test system: Gemcitabine-resistant PANC-1; assay: Cell cycle distribution in human Gemcitabine-resistant PANC-1 cells assessed as G0-G1 phase cells at 160 nM incubated for 24 hrs by RNase/PI staining based flow cytometric analysis (reference value: 45.21 %); type: functional
[14] = test system: Gemcitabine-resistant PANC-1; assay: Effect on Akt expression in human Gemcitabine-resistant PANC-1 cells at 40 to 160 nM by Western blot analysis; type: functional, cell-based; settings: dose 40-160 nM
[15] = test system: Gemcitabine-resistant PANC-1; assay: Induction of cell cycle arrest in human Gemcitabine-resistant PANC-1 cells assessed as upregulation of p27 protein expression level at 40 to 160 nM incubated for 24 hrs by Western blot analysis; type: functional, cell-based; settings: dose 40-160 nM
[16] = test system: Gemcitabine-resistant PANC-1; assay: Cell cycle distribution in human Gemcitabine-resistant PANC-1 cells assessed as S phase cells at 80 nM incubated for 24 hrs by RNase/PI staining based flow cytometric analysis (reference value: 17.32 %); type: functional
[17] = target: Serine/threonine-protein kinase AKT (Homo sapiens) (UniProt P31751+Q9Y243+P31749); assay: Inhibition of Akt phosphorylation in human Gemcitabine-resistant PANC-1 cells at 160 nM incubated for 24 hrs by phospho-kinase array analysis; type: cell-based
Serine/threonine-protein kinase AKT (Homo sapiens), sequence (P31749 whole entry, looked up): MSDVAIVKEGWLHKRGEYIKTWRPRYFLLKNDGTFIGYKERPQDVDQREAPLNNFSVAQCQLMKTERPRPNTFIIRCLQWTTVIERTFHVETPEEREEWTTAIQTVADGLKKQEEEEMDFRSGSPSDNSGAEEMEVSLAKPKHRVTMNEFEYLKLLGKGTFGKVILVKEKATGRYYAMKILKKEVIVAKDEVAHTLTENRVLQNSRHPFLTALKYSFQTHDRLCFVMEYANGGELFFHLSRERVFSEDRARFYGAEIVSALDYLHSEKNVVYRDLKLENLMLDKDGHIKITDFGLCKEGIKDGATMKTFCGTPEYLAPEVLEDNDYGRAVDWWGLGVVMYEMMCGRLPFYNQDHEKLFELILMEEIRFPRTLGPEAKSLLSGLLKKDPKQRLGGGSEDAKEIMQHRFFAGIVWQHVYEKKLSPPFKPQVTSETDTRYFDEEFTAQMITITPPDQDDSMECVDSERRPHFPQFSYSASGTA
Serine/threonine-protein kinase AKT (Homo sapiens), sequence (P31751 whole entry, looked up): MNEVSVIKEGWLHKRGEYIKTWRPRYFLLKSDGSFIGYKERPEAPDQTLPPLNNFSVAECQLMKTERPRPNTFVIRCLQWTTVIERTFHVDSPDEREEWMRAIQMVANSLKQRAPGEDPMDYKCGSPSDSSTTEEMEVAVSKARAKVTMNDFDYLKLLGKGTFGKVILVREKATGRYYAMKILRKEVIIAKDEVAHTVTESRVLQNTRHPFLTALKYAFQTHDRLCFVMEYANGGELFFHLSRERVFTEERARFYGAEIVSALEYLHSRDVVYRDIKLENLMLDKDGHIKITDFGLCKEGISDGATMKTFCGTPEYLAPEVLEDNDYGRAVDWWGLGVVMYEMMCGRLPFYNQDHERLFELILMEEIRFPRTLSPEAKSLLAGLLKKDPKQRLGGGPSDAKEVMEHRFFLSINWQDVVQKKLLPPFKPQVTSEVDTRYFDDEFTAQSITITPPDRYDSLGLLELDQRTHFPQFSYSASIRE
Serine/threonine-protein kinase AKT (Homo sapiens), sequence (Q9Y243 whole entry, looked up): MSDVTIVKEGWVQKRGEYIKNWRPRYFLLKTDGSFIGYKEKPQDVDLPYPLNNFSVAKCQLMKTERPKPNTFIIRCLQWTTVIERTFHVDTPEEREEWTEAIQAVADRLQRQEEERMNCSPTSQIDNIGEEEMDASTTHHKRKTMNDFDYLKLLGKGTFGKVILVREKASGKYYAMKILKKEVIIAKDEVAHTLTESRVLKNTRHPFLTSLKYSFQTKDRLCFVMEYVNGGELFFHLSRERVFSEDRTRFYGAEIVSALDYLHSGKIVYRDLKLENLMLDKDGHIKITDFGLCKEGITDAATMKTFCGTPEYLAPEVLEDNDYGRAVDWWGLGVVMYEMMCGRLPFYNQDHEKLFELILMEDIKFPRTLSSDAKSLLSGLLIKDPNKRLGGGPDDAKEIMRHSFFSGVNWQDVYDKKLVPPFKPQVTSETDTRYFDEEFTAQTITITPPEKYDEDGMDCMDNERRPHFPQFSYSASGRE

[18] = target: T1, Protein kinase C beta type; assay: Induction of thermal stabilization of PKCbeta1 in human Gemcitabine-resistant PANC-1 cells at 10 uM incubated for 1 hrs at 40 to 65 degreeC by CETSA; type: cell-based
Target sequence in this assay (P05771 2-671 limits assumed): as the sequence (P05771 2-671 limits assumed) above

[19] = target: Glycogen synthase kinase-3 beta (Homo sapiens) (UniProt P49841); assay: Inhibition of GSK3beta phosphorylation in human Gemcitabine-resistant PANC-1 cells at 160 nM incubated for 24 hrs by phospho-kinase array analysis; type: cell-based
Glycogen synthase kinase-3 beta (Homo sapiens), sequence (P49841 whole entry, looked up): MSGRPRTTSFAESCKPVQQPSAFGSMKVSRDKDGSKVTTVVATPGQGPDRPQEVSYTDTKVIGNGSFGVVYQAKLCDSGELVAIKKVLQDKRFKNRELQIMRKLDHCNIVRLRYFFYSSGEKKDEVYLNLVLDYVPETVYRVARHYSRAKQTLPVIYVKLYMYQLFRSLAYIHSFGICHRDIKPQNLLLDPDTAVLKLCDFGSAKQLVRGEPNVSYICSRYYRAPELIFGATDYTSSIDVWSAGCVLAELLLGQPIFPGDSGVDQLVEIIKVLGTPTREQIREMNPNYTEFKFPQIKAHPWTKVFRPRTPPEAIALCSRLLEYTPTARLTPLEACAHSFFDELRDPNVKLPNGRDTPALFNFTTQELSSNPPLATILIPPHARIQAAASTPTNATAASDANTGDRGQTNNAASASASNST

[20] = test system: Gemcitabine-resistant PANC-1; assay: Cytotoxicity against human Gemcitabine-resistant PANC-1 cells assessed as inhibition of cell growth incubated for 72 hrs by SRB assay; type: functional, cell-based; settings: Gemcitabine-resistant PANC-1, 72 h
[21] = Cytotoxicity against HPDE6c7 cells assessed as inhibition of cell growth incubated for 72 hrs by SRB assay; type: toxicity, cell-based; settings: human
[22] = test system: Gemcitabine-resistant PANC-1; assay: Effect on GSK3beta expression in human Gemcitabine-resistant PANC-1 cells at 40 to 160 nM by Western blot analysis; type: functional, cell-based; settings: dose 40-160 nM
[23] = test system: Gemcitabine-resistant PANC-1; assay: Induction of cell cycle arrest in human Gemcitabine-resistant PANC-1 cells assessed as downregulation of CDK2 protein expression level at 40 to 160 nM incubated for 24 hrs by Western blot analysis; type: functional, cell-based; settings: dose 40-160 nM
[24] = test system: PANC-1; assay: Cytotoxicity against human PANC-1 cells assessed as inhibition of cell growth incubated for 72 hrs by SRB assay; type: functional, cell-based; settings: PANC-1, 72 h
[25] = test system: Gemcitabine-resistant PANC-1; assay: Induction of apoptosis in human Gemcitabine-resistant PANC-1 cells assessed as total cell death at 40 nM incubated for 48 hrs by Annexin V-FITC/PI staining based flow cytometric analysis relative to control; type: functional
[26] = Toxicity in male BALB/c nude mouse xenografted with human Gemcitabine-resistant PANC-1 cells at 10 mg/kg, ip administered three times in a week for 20 days; type: organism-based; settings: in vivo, 480 h, time 20 day
[27] = test system: Gemcitabine-resistant PANC-1; assay: In vivo inhibition of PKCbeta1 in male BALB/c nude mouse xenografted with human Gemcitabine-resistant PANC-1 cells assessed as reduction in PKCbeta1 expression in tumor at 10 mg/kg, ip administered three times in a week for 20 days by Western blot analysis; type: functional, organism-based; settings: time 20.0 day
[28] = test system: Gemcitabine-resistant PANC-1; assay: Cell cycle distribution in human Gemcitabine-resistant PANC-1 cells assessed as G2/M phase cells at 160 nM incubated for 24 hrs by RNase/PI staining based flow cytometric analysis (reference value: 37.53 %); type: functional
[29] = test system: Gemcitabine-resistant PANC-1; assay: Cell cycle distribution in human Gemcitabine-resistant PANC-1 cells assessed as S phase cells at 160 nM incubated for 24 hrs by RNase/PI staining based flow cytometric analysis (reference value: 17.32 %); type: functional
[30] = test system: Gemcitabine-resistant PANC-1; assay: Cell cycle distribution in human Gemcitabine-resistant PANC-1 cells assessed as G2/M phase cells at 40 nM incubated for 24 hrs by RNase/PI staining based flow cytometric analysis (reference value: 37.53 %); type: functional
[31] = test system: Gemcitabine-resistant PANC-1; assay: Induction of apoptosis in human Gemcitabine-resistant PANC-1 cells assessed as upregulation of cleaved caspase-8 level at 160 nM incubated for 48 hrs by Western blot analysis; type: functional, cell-based
[32] = test system: Gemcitabine-resistant PANC-1; assay: Induction of apoptosis in human Gemcitabine-resistant PANC-1 cells assessed as upregulation of cleaved caspase-3 level at 160 nM incubated for 48 hrs by Western blot analysis; type: functional, cell-based
[33] = test system: Gemcitabine-resistant PANC-1; assay: Downregulation of p-STAT5 expression in human Gemcitabine-resistant PANC-1 cells at 40 to 160 nM incubated for 24 hrs by Western blotting; type: functional, cell-based; settings: dose 40-160 nM

Q: With CC(=O)Oc1ccc2[nH]c3c(c2c1)CCN1C(=O)c2ccccc2N(C)[C@H]31 as the compound, how does the Activity [1] read?
A: 34.14%

Q: And the Activity [2]?
A: Active

Q: And the inhibition [3]?
A: Active

Q: What about the Activity [4] of the same compound?
A: 44.89%

Q: And the Activity [5]?
A: 42.91%

Q: What about the Activity [6] of the same compound?
A: inactive

Q: What about the Activity [7] of the same compound?
A: 20.63%

Q: And the inhibition [8]?
A: Dose-Dependent Effect

Q: And the Activity [9]?
A: Active

Q: And the Activity [10]?
A: inactive

Q: And the IC50 [11]?
A: 117 nM

Q: What about the Activity [12] of the same compound?
A: 48.98%

Q: And the Activity [13]?
A: 26.28%

Q: And the Activity [14]?
A: inactive

Q: And the Activity [15]?
A: Active

Q: What about the Activity [16] of the same compound?
A: 15.94%

Q: And the inhibition [17]?
A: Active

Q: What about the Activity [18] of the same compound?
A: Active

Q: What about the inhibition [19] of the same compound?
A: Active

Q: And the IC50 [20]?
A: 70 nM

Q: What about the IC50 at 72 h [21] of the same compound?
A: 2950 nM

Q: What about the Activity [22] of the same compound?
A: inactive

Q: And the Activity [23]?
A: Active

Q: What about the IC50 [24] of the same compound?
A: ≤ 80 nM

Q: What about the Activity [25] of the same compound?
A: 15.83%

Q: And the Activity [26]?
A: Non-Toxic

Q: What about the inhibition [27] of the same compound?
A: Active

Q: And the Activity [28]?
A: 58.51%

Q: What about the Activity [29] of the same compound?
A: 14.05%

Q: And the Activity [30]?
A: 39.38%

Q: What about the Activity [31] of the same compound?
A: Active

Q: What about the Activity [32] of the same compound?
A: Active

Q: And the Activity [33]?
A: Active
